Results taken from PubChem BioAssay AID179 (DTP/NCI, 2004).
Activity calls are given as the source filed them.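 How the source made its calls: active means compounds giving half or more protection of infected cells from virus-caused growth loss, again on retest; inactive means the rest.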

System: CEM cells HIV-1 protection, formazan growth assay
Assay: NCI AIDS Antiviral Assay
Conditions: for IC50: measured here: growth of uninfected CEM cells
Outline: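 Steps: treat uninfected and HIV-1-infected human CEM cells at five drug levels; quantify growth by soluble formazan; retest any compound reaching 50% protection; classify actives from the retest.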

SMILES | EC50 [µM] | IC50 [µM] | outcome
O=C(Nc1cccc(C(F)(F)F)c1)C(=O)C(C(=O)c1ccc2ccccc2c1)C1OC(=O)c2ccccc21 (stereo unspecified) | > 50.1 | 21.9 | –
Nc1ccccc1S(=O)c1ccccc1 (stereo unspecified) | > 275 | > 275 | –
CCOC(=O)c1ncn2c1[nH]c(=S)c1ccccc12 | > 26.3 | > 26.3 | –
CC[C@@H]1CC[C@@H]2[C@H](CC[C@]3(C)[C@@H](O[N+](=O)[O-])CC[C@@H]23)[C@H]1C(C)=O | – | – | inactive
CCOC(=O)Cc1nc2c(=O)[nH]cnc2n1C1OC(COC(C)=O)C(OC(C)=O)C1OC(C)=O (stereo unspecified) | > 200 | > 200 | –
COC(=O)[C@H](Cc1c[nH]c2ccccc12)NP(=O)(OC)OCC1OC(n2cc(C)c(=O)[nH]c2=O)CC1N=[N+]=[N-] (stereo partly specified) | 69.2 | > 200 | –
CNC(=O)N(C)COC | > 759 | 115 | –
CCOC(=O)CCc1c(C)c2c(OC)cc(OC)cc2oc1=O | – | – | inactive
COc1ccc2c(=O)c3c([nH]c2c1)OCC3=O | > 100 | > 100 | –
CC1(C)COC(CCCCCNC2=NCCCCC2)=N1 | > 200 | > 200 | –
CCOc1cn(C2OC(CO)C(O)C2O)c(=O)[nH]c1=O (stereo unspecified) | > 871 | 490 | –
COc1ccc(-c2c3c(n(C4OC(COC(C)=O)C(OC(C)=O)C(OC(C)=O)C4OC(C)=O)c(=S)c2C#N)CCCC3)cc1 (stereo unspecified) | > 200 | 89.1 | –
CC1CCC2CC1NC(=O)CCOCCC(=O)NC2(C)C (stereo unspecified) | > 45.7 | > 45.7 | –
CCOC(=O)c1c(C(F)(F)F)oc2c1ccc1nc3nonc3nc12 | > 53.7 | 11 | –
CCOC(=O)C(=O)/C(=C/N1CCNC1=S)C(=O)OCC | – | – | inactive
CC[C@@H]1ON(C)[C@H]2CN(C)C(=O)[C@@H]12 | > 200 | > 200 | –
C[C@@H](c1ccccc1)N1CN(C(=O)OCc2ccccc2)C(CO)C1=O (stereo partly specified) | > 200 | 186 | –
CC(=O)C1=CC=C/C1=N\Nc1ccccc1 | > 200 | 11 | –
O=C(Nc1ccccc1)NC(CSSCC(NC(=O)Nc1ccccc1)C(=O)O)C(=O)O (stereo unspecified) | > 200 | 7.24 | –
CNC(=O)CN1CC(=O)N(C)C(=O)C1 | > 1260 | > 1260 | –
CC(NC(=O)OCC[P+](c1ccccc1)(c1ccccc1)c1ccccc1)C(=O)O (stereo unspecified) | > 200 | 5.89 | –

SMILES | EC50 [µM] | IC50 [µM] | outcome
O=C(/N=C/c1c(O)c2ccccc2oc1=O)Nc1ccccc1 | > 17 | > 17 | –
COc1cc(OC)c(C2c3cc4c(cc3OC(N3CCOCC3)C2C)OCO4)c(OC)c1 (stereo unspecified) | > 200 | 11.2 | –
C=CCNC1=C2C[C@@H](C)C[C@@H](OC)C(OC(=O)CCCN(C)C)[C@H](C)/C=C(\C)[C@@H](OC(N)=O)[C@H](OC)/C=C\C=C(/C)C(=O)NC(=CC1=O)C2=O (stereo partly specified) | > 200 | 11 | –
Fc1ccc2c3c([nH]c2c1)CCN(Cc1ccccc1)C3 | > 200 | 38 | –
CC1(C)N=C(N)N=C(N)N1c1cccc(/C=C(\C#N)c2ccccc2)c1 | > 200 | 4.79 | –
COc1ccc(-c2cc(=O)c3c(O)cc(O)c(-c4cc(-c5cc(=O)c6c(O)cc(OC)cc6o5)ccc4OC)c3o2)cc1 | > 200 | 107 | –
O=c1n(-c2ccccc2)c2nc3ccccc3nc2n1-c1ccc(Cl)c(Cl)c1 | > 61.7 | 30.2 | –
O=C(N/N=C\c1cccc(/C=N\NC(=O)Nc2ccc(N=Nc3ccccc3)cc2)n1)Nc1ccc(N=Nc2ccccc2)cc1 | > 200 | 39.8 | –
Cc1cc(=O)[nH]c(NN2C(Cl)C(=O)C2c2cccc([N+](=O)[O-])c2)n1 (stereo unspecified) | > 53.7 | 15.5 | –
CCOC(=O)c1c(-c2ccccc2)oc(-c2ccccc2)c1C(=O)OCC | – | – | inactive
CC(=O)Oc1c(OC(C)C)cc(=O)n2ccsc12 | > 200 | 102 | –
O=C(O)CSC(=S)N1CCCC1 | > 200 | 102 | –
COC(=O)/C(=N\NC(C)(C)C)C(C(=O)C(=O)Nc1cc(C)ccc1C)c1nc2ccccc2[nH]c1=O (stereo unspecified) | – | – | inactive
O=c1cc2[nH]cnc2c(O)[nH]1 | > 89.1 | > 89.1 | –
O=C(CCC(=O)Nc1cccc(Cl)c1)CC(=O)c1ccc(F)cc1 | – | – | inactive
CC[n+]1[b-](C(C)(C)C)n(/N=C/C(C)(C)C)[b-](C(C)(C)C)[n+]1CC | > 200 | > 200 | –
CCN(CC)Cc1c(/C=C\c2cc(OC)c(OC)c(OC)c2)ccc(OC)c1O | > 200 | 1.1 | –
O=C1CSC(c2ccc(Cl)cc2)N1c1ccc(-c2ccc(-n3c(-c4ccccc4)nc4ccccc4c3=O)cc2)cc1 (stereo unspecified) | > 200 | 47.9 | –
N#C/C(=C1\OC(=N)C(c2ccc(Cl)cc2Cl)C1=O)c1ccc(Cl)cc1Cl (stereo unspecified) | – | – | inactive
CN(C)c1ccc(/C=N/n2c(-c3ccccc3)nc3ccccc3c2=O)cc1 | > 200 | 33.9 | –
Cn1c(COC(=O)Nc2ccccc2)c(COC(=O)Nc2ccccc2)c2ccc3cc(Cl)c(Cl)cc3c21 | > 200 | 0.468 | –

SMILES | EC50 [µM] | IC50 [µM] | outcome
CC[As](CC)SCC1OC(OC(C)=O)C(OC(C)=O)C(OC(C)=O)C1OC(C)=O (stereo unspecified) | > 191 | 4.57 | –
Cc1ccc(S(=O)(=O)Oc2nc3ccccc3nc2OS(=O)(=O)c2ccc(C)cc2)cc1 | > 200 | 38.9 | –
CC(C)=CCCc1c(C)ccc2c1C(=O)C(=O)C(C(C)C)=C2O | > 57.5 | 33.9 | –
CC(C)c1c(P(=O)(c2ccccc2)c2ccccc2)n(C)c2ccccc12 | > 100 | 41.7 | –
COC(=O)C(C#N)C1NC(=O)c2ccccc21 (stereo unspecified) | > 81.3 | > 81.3 | –
COc1ccc(C2OC(=O)c3cc[nH]c(=O)c32)cc1 (stereo unspecified) | > 141 | > 141 | –
O=C(/N=C/c1c(O)c2ccccc2oc1=O)Oc1ccccc1 | > 100 | 33.1 | –
C/C(=C\c1ccccc1)C(O)C(=O)c1nc2ccc([N+](=O)[O-])cc2[nH]c1=O (stereo unspecified) | – | – | inactive
O=C1c2ccccc2C(=O)N1/N=C\c1ccc([N+](=O)[O-])cc1 | > 24.5 | > 24.5 | –
CCN(CC)c1ccc(N=Nc2ccc([N+](=O)[O-])cc2OC(=O)/C=C/c2ccccc2)c(OC(=O)/C=C/c2ccccc2)c1 | > 4.57 | 0.851 | –
O=C(Nc1noc(-c2ccccc2)n1)c1ccccc1CNc1noc(-c2ccccc2)n1 | > 200 | > 200 | –
CC/C(=N/O)c1ccc(Br)s1 | – | – | inactive
Cc1ccc2nc(N)[nH]c(=O)c2c1Sc1ccncc1 | > 363 | 1.35 | –
CN1CCN(CCSc2nnc(-c3cc4ccccc4s3)c3ccccc23)CC1 | > 162 | 12.9 | –
COc1ccc(/C=C2\SC(=S)NC2=O)cc1 | > 28.8 | > 28.8 | –
COc1cc(Br)cc2nc(-c3cccs3)oc12 | > 200 | 141 | –
CC1(C)OC[C@@H](O)[C@H](Br)CO1 | > 200 | 77.6 | –
CN(C)CCOc1cccc(OCCN(C)C)n1 | > 200 | > 200 | –
CC1(C)OC2CC3CC(OC3=O)C2O1 (stereo unspecified) | > 832 | > 832 | –
CCN(CC)c1ccc(N=C2C=C(Cl)C(=O)c3ncccc32)c(C)c1 | – | – | inactive
N#CC(C(=O)CCC(=O)Nc1ccc(Cl)c(Cl)c1)c1ccccc1 (stereo unspecified) | > 692 | > 692 | –
